# According to US11230541B2, “Heterocyclic compound” (Takeda Pharmaceutical Company Limited, priority 2017, dated 2022):
# Target: T1, NMDA receptor composed of four subunits including 2 sets of heterodimers of NR1 and NR2B (Homo sapiens, UniProt Q13224)
# T1 construct: host or cells: HEK293 (tetracycline-induced expression)
# Assay: NR2B Ca2+ influx assay (FLIPR, Fluo-4) in HEK293 cells expressing human GRIN1 and GRIN2B
# Assay type: cell-based
# Conditions: HEK293, 10 μM final compound concentration, glutamic acid/glycine-induced Ca2+ influx, read-out: inhibitory rate (10 μM compound concentration)
# Text: To confirm the “antagonistic action on an NMDA receptor containing the NR2B subunit” of the compound of the present invention, human embryonic kidney cell expressing the “NMDA receptor composed of four subunits including 2 sets of heterodimers of NR1 and NR2B”, specifically HEK293 cell expressing human glutamate ionotropic receptor NMDA type subunit 1 (GRIN1) and human glutamate ionotropic receptor NMDA type subunit 2B (GRIN2B), was used and the activation suppressive effect on the receptors was measured.
# As an index of the NMDA receptor activation, intracellular calcium ion (Ca^2+) influx caused by the binding of glycine and glutamic acid with NR1 and NR2B, respectively, was used. HEK293 cells were purchased from ChanTest. The cells were cultured in a DMEM/F-12 (COSMO BIO, 10-092-CM) medium added with 10% FBS′(fetal bovine serum, AusGene), 100 units/mL penicillin, 100 μg/mL streptomycin, 500 μg/mL neomycin, 100 μg/mL Zeocin, 5 μg/mL Blasticidin at 37° C., 5% CO2. The cells were detached from flask with trypsin the day before the assay, suspended in a seeding medium (DMEM (Invitrogen, 31053) added with 10% FBS, 100 units/mL penicillin, 100 μg/mL streptomycin) at 8×10^5 cells/mL, seeded by 25 μL per well in a 384-well plate (Falcon, 356663) at 20000 cells/well, and cultured overnight in an incubator. On the day of the assay, tetracycline (Wako Pure Chemical Industries, Ltd., 209-16561) was diluted with the seeding medium at 2 μg/mL, added at […] to the plate seeded with the cells, and cultured for 2 hr in an incubator. Thereafter, the medium was removed, and the cells were washed with 50 μL/well assay buffer (137 mM NaCl, 4 mM KCl, 1.8 mM CaCl2, 10 mM HEPES (pH 7.2), 10 mM Glucose, 0.1% BSA). Then, a loading buffer (assay buffer added with 2.5 uM Fluo-4AM, 2 mM Amaranth, 1 mM Tartrazine) was added at 25 μL/well, and loading was performed in the incubator for 30 min, and at room temperature for 15 min. A solution (25 μL) of the Example compound diluted with the above-mentioned assay buffer at 30 μM (final concentration 10 μM) was added, and the cells were stood for 15 min at room temperature. Using FLIPR (Molecular Devices), 25 μL of an assay buffer containing 30 μM glutamic acid, 30 μM glycine was added, and the fluorescence signal was measured every 3 seconds for 5 min. The inhibitory activity was calculated as a relative activity value (inhibitory rate) that inhibits 100% of the cumulative value of the fluorescence value of a well added with a buffer free of glutamic acid, glycine, relative to the cumulative value of the fluorescence value of each well.
# T1 sequence (Q13224 27-1484, other chains not shown): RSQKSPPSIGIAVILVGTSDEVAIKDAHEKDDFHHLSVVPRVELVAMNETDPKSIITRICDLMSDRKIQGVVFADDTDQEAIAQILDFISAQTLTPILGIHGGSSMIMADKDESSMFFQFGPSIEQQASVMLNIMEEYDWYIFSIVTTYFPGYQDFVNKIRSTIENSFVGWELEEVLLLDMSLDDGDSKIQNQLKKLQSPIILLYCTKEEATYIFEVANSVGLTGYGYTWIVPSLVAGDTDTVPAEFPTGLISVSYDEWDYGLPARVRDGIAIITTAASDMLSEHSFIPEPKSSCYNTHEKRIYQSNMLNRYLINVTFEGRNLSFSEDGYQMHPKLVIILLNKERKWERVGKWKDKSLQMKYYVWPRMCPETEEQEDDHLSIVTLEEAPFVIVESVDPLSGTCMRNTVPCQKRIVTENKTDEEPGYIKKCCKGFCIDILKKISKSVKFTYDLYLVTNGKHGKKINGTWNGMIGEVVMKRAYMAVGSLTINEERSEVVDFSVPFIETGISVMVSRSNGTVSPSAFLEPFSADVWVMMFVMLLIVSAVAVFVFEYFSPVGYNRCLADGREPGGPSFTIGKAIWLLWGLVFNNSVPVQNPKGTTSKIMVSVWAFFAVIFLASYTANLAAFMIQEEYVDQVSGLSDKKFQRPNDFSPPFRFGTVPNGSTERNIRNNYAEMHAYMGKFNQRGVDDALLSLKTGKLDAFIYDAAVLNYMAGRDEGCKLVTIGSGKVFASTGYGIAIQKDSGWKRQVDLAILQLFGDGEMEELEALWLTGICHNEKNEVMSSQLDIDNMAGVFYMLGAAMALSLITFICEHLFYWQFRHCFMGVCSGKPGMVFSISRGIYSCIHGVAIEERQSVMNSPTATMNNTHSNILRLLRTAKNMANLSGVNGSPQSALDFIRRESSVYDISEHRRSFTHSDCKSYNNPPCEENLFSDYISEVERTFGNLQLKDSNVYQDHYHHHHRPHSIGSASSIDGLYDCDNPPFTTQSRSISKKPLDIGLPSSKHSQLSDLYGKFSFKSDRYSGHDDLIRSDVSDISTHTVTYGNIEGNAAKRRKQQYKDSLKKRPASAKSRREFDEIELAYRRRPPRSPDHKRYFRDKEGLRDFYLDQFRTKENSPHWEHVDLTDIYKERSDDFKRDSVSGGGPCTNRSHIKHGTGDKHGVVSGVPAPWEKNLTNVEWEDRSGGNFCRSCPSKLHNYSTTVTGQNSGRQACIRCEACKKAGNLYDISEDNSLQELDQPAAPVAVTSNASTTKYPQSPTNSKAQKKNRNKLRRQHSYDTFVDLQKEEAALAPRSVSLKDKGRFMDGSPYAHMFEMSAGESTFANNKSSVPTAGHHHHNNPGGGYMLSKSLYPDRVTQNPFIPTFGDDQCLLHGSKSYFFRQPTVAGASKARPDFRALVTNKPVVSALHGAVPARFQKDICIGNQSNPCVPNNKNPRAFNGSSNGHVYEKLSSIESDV
row,Structure (SMILES),inhibition at 10 µM
1,"O=C(NCc1c(C2CC2)ccc2[nH]ncc12)c1ccc(Cl)s1 [Example 71, 5-chloro-N-((5-cyclopropyl-1H-indazol-4-yl)methyl)thiophene-2-carboxamide]",92%
2,"Cc1cc(C(=O)NCc2c(C3CC3)ccc3[nH]ncc23)ccc1Cl [Example 73, 4-chloro-N-((5-cyclopropyl-1H-indazol-yl)methyl)-3-methylbenzamide]",94%
3,"Cc1ccc(C(=O)NCc2c(C3CC3)ccc3[nH]ncc23)cc1Cl [Example 74, 3-chloro-N-((5-cyclopropyl-1H-indazol-yl)methyl)-4-methylbenzamide]",93%
4,"O=C(NCc1c(C2CC2)ccc2[nH]ncc12)c1ccc(F)c(Cl)c1 [Example 77, 3-chloro-N-((5-cyclopropyl-1H-indazol-4-yl)methyl)-4-fluorobenzamide]",92%
5,"O=C(NCc1c(C2CC2)ccc2[nH]ncc12)c1cc(F)c(F)c(F)c1 [Example 79, N-((5-cyclopropyl-1H-indazol-4-yl)methyl)-3,4,5-trifluoro-benzamide]",92%
6,"COc1ccc(C(=O)NCc2c(C3CC3)ccc3[nH]ncc23)cc1Cl [Example 80, 3-chloro-N-((5-cyclo-propyl-1H-indazol-4-yl)methyl)-4-methoxybenzamide]",93%
7,"O=C(NCc1c(C2CC2)ccc2[nH]ncc12)c1ccc(C(F)(F)F)s1 [Example 82, N-((5-cyclopropyl-1H-indazol-4-yl)methyl)-5-(trifluoromethyl)-thiophene-2-carboxamide]",94%
8,"O=C(NCc1c(C2CC2)ccc2[nH]ncc12)c1cc(Cl)c(Cl)s1 [Example 83, 4,5-dichloro-N-((5-cyclopropyl-1H-indazol-4-yl)methyl)thiophene-2-carboxamide]",93%
9,"Cc1ccc(C(=O)NCc2c(C3CC3)ccc3[nH]ncc23)cc1C(F)(F)F [Example 84, N-((5-cyclopropyl-1H-indazol-4-yl)methyl)-4-methyl-3-(trifluoro-methyl)benzamide]",91%
10,"O=C(NCc1c(C2CC2)ccc2[nH]ncc12)c1ccc(F)c(C(F)(F)F)c1 [Example 85, N-((5-cyclopropyl-1H-indazol-4-yl)methyl)-4-fluoro-3-(trifluoromethyl)-benzamide]",93%
11,"O=C(NCc1c(C2CC2)ccc2[nH]ncc12)c1cc(Cl)c(F)c(Cl)c1 [Example 86, 3,5-dichloro-N-((5-cyclopropyl-1H-indazol-4-yl)methyl)-4-fluorobenzamide]",94%
12,"O=C(NCc1c(C2CC2)ccc2[nH]ncc12)c1cc(F)c(Cl)c(Cl)c1 [Example 87, 3,4-dichloro-N-((5-cyclopropyl-1H-indazol-4-yl)methyl)-5-fluorobenzamide]",94%
13,"O=C(NCc1c(C2CC2)ccc2[nH]ncc12)c1ccc(OC(F)(F)F)c(F)c1 [Example 88, N-((5-cyclopropyl-1H-indazol-4-yl)methyl)-3-fluoro-4-(trifluoro-methoxy)benzamide]",93%
14,"O=C(NCc1c(C2CC2)ccc2[nH]ncc12)c1ccc(C(F)(F)F)c(Cl)c1 [Example 89, 3-chloro-N-((5-cyclo-propyl-1H-indazol-4-yl)methyl)-4-(trifluoro-methyl)benzamide]",91%
15,"O=C(NCc1c(C2CC2)ccc2[nH]ncc12)c1cc(F)c(C(F)(F)F)c(F)c1 [Example 91, N-((5-cyclopropyl-1H-indazol-4-yl)methyl)-3,5-difluoro-4-(trifluoro-methyl)benzamide]",94%
16,"O=C(NCc1c(C2CC2)ccc2[nH]ncc12)c1ccc(C(F)(F)F)c(F)c1 [Example 92, N-((5-cyclopropyl-1H-indazol-4-yl)methyl)-3-fluoro-4-(trifluoro-methyl)benzamide]",93%
17,"O=C(NCc1c(C2CC2)ccc2[nH]ncc12)c1ccc(C(F)F)cc1 [Example 98, N-((5-cyclopropyl-1H-indazol-4-yl)methyl)-4-(difluoromethyl)-benzamide]",90%
18,"Cc1ccc(C(=O)NCc2c(C3CC3)ccc3[nH]ncc23)cc1 [Example 99, N-((5-cyclopropyl-1H-indazol-4-yl)methyl)-methylbenzamide]",91%
19,"O=C(NCc1c(C2CC2)ccc2[nH]ncc12)c1ccc(OC(F)F)cc1 [Example 100, N-((5-cyclopropyl-1H-indazol-4-yl)methyl)-4-(difluoromethoxy)-benzamide]",91%
20,"COc1ccc(C(=O)NCc2c(C3CC3)ccc3[nH]ncc23)cc1 [Example 101, N-((5-cyclopropyl-1H-indazol-4-yl)methyl)-methoxybenzamide]",92%
21,"O=C(NCc1c(C2CC2)ccc2[nH]ncc12)c1ccc(Cl)cc1 [Example 102, 4-chloro-N-((5-cyclopropyl-1H-indazol-yl)methyl)benzamide]",92%
22,"O=C(NCc1c(C2CC2)ccc2[nH]ncc12)c1ccc(OC(F)(F)F)nc1 [Example 106, N-((5-cyclopropyl-1H-indazol-4-yl)-methyl)-6-(trifluoro-methoxy)nicotinamide]",93%

# Continued, values first:
row,inhibition at 10 µM,Structure (SMILES)
1,89%,"COc1cc(C(=O)NCc2c(C3CC3)ccc3[nH]ncc23)ccc1F [Example 72, N-((5-cyclopropyl-1H-indazol-4-yl)methyl)-4-fluoro-3-methoxy-benzamide]"
2,92%,"Cc1cc(C(=O)NCc2c(C3CC3)ccc3[nH]ncc23)ccc1F [Example 75, N-((5-cyclopropyl-1H-indazol-4-yl)methyl)-4-fluoro-3-methyl-benzamide]"
3,93%,"Cc1cc(C(=O)NCc2c(C3CC3)ccc3[nH]ncc23)cc(F)c1F [Example 76, N-((5-cyclopropyl-1H-indazol-4-yl)methyl)-3,4-difluoro-5-methyl-benzamide]"
4,93%,"O=C(NCc1c(C2CC2)ccc2[nH]ncc12)c1ccc(Cl)c(F)c1 [Example 78, 4-chloro-N-((5-cyclopropyl-1H-indazol-yl)methyl)-3-fluorobenzamide]"
5,82%,"COc1cc(C(=O)NCc2c(C3CC3)ccc3[nH]ncc23)ccc1Cl [Example 81, 4-chloro-N-((5-cyclopropyl-1H-indazol-4-yl)methyl)-3-methoxybenzamide]"
6,94%,"O=C(NCc1c(C2CC2)ccc2[nH]ncc12)c1cc(F)c(Cl)c(F)c1 [Example 90, 4-chloro-N-((5-cyclo-propyl-1H-indazol-4-yl)methyl)-3,5-difluorobenzamide]"
7,94%,"Cc1ccc(C(=O)NCc2c(C3CC3)ccc3[nH]ncc23)cc1F [Example 93, N-((5-cyclopropyl-1H-indazol-4-yl)methyl)-3-fluoro-4-methyl-benzamide]"
8,93%,"COc1ccc(C(=O)NCc2c(C3CC3)ccc3[nH]ncc23)cc1F [Example 94, N-((5-cyclopropyl-1H-indazol-4-yl)methyl)-3-fluoro-4-methoxy-benzamide]"
9,95%,"O=C(NCc1c(C2CC2)ccc2[nH]ncc12)c1cc(F)c(F)c(Cl)c1 [Example 95, 3-chloro-N-((5-cyclopropyl-1H-indazol-4-yl)methyl)-4,5-difluorobenzamide]"
10,93%,"COc1ncc(C(=O)NCc2c(C3CC3)ccc3[nH]ncc23)cc1F [Example 96, N-((5-cyclopropyl-1H-indazol-4-yl)methyl)-fluoro-6-methoxy-nicotinamide]"
11,94%,"Cc1c(F)cc(C(=O)NCc2c(C3CC3)ccc3[nH]ncc23)cc1F [Example 97, N-((5-cyclopropyl-1H-indazol-4-yl)methyl)-3,5-difluoro-4-methylbenzamide]"
12,93%,"COc1ncc(C(=O)NCc2c(C3CC3)ccc3[nH]ncc23)cc1Cl [Example 103, 5-chloro-N-((5-cyclopropyl-1H-indazol-yl)methyl)-6-methoxynicotinamide]"
13,90%,"CCOc1ncc(C(=O)NCc2c(C3CC3)ccc3[nH]ncc23)cc1Cl [Example 104, 5-chloro-N-((5-cyclopropyl-1H-indazol-4-yl)methyl)-6-ethoxynicotinamide]"
14,93%,"O=C(NCc1c(C2CC2)ccc2[nH]ncc12)c1cnc(OC(F)F)c(F)c1 [Example 105, N-((5-cyclopropyl-1H-indazol-4-yl)methyl)-6-(difluoromethoxy)-5-fluoronicotinamide]"
